Assay results as given in US10738028B2, “Spiro three-membered ring, spiro five-membered ring peptide deformylase inhibitor and use thereof in antibacteria and anti-tumor” (priority 2016, dated 2020).
Converted amounts (≈) assume the structure as drawn.

What was measured:
[1] = system: methicillin-resistant Staphylococcus aureus (MRSA); experiment: MIC, two-fold agar dilution (CLSI), clinical isolates; format: cell-based
In short: (§1)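 Susceptibility was tested using CLSI two-fold agar dilution against the strains examined.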

[2] = system: methicillin-sensitive Staphylococcus aureus (MSSA); experiment: as above; format: cell-based
In short: as §1

[3] = system: Escherichia coli (including ESBLs, non-ESBLs); experiment: as above; format: cell-based
In short: as §1

[4] = system: Enterococcus faecalis (EFA); experiment: as above; format: cell-based
In short: as §1

[5] = system: methicillin-resistant Staphylococcus epidermidis (MRSE); experiment: as above; format: cell-based
In short: as §1

[6] = system: methicillin-sensitive Staphylococcus epidermidis (MSSE); experiment: as above; format: cell-based
In short: as §1

[7] = system: HCT-116 colorectal cancer cell line; experiment: CCK-8 proliferation inhibition; format: cell-based; details: concentration of 30 μM; 72 hours; CCK-8; 30 µM
In short: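 Growth inhibition is read by CCK-8 (1:10 dilution) after 72 h of compound exposure. HCT-116 cells grow in McCoy's 5A containing 10% newborn bovine serum at 2000 cells/well, with 1‰ DMSO as vehicle control.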

[8] = system: methemoglobin in blood samples of three healthy volunteers; experiment: Toxicity on methemoglobin in vitro (whole blood with S9 and NADPH, absorbance at 630 nm); format: cell-based, human
Method: Because PDF inhibitors such as LBM415 and GSK1322322 can produce active species such as aromatic hydroxylamine and aromatic hydrazines in metabolic process, and cause human methemoglobinemia. To this end, continuous wavelength method was adopted in this invention to scan the absorption spectrum of blood samples in the wavelength range of 500 to 700 nm in the ultraviolet-visible spectrophotometer, and the contents of methemoglobin in blood samples of three healthy volunteers were calculated, after being effected by the synthesized compounds.
Experimental materials: Nicotinamide adenine dinucleotide phosphate (NADPH) reduction system: glucose-6-disodium phosphate, nicotinamide adenine dinucleoside phosphate and glucose-6-phosphate dehydrogenase (purchased from Shanghai yuanye Bio-Technology Co., Ltd) were added to 1 mL of phosphate buffer solution (PBS, pH 7.4), and the mixture was shaked in a shaker type water bath at 37° C. for 10 min, and then cooled to 0° C. Mixed human hepatocytes fraction S9 was purchased from Xenotech (20 mg S9 protein/1 mL suspension medium). Compounds were prepared to stock solution at a concentration of 50 mM, which was stored at −20° C. for use. Dapsone was used as positive control experimental reagent, which was purchased from Sigma Aldrich. 1% w/v triton X-100 was self-prepared. Blood samples were collected using Vacutainer tubes containing EDTA anticoagulants (BD, Franklin Lakes, USA), which were sampled from three healthy volunteers and used immediately after sampling.
Preparation of incubation system for blood samples and drugs: 250 μL of incubation system was consist of 220 μL of whole blood, 25 μL of S9 (final concentration: 2 mg S9 protein/mL incubation solution), 2.5 μL of NADPH form system (final concentration: 10 mM G-6-P, 1 mM NADP, 7.5 Units/mL) and 2.5 μL of stock solution of a compound (final concentration 500 μM). […] of incubation system was placed in an Eppendorf tube and incubated for 5 hours at 37° C. in water bath.
Determination of the content of methemoglobin: 60 μL of an incubated sample was taken and lysed with 3.0 mL of 1% Triton X-100. The content of methemoglobin (MetHb) was measured by an ultraviolet-visible spectrophotometer, with the Triton X-100 solution used as blank control. A sample was placed in a cuvette, 1 minute later, the spectrums of the sample in the wavelength range from 500 nm to 700 nm were recorded. The sample was added with 2 mg of potassium ferricyanide, and was allowed to stay stationary for 2 minutes for completely oxidization of ferrous iron in the sample, and standard spectrum of methemoglobin with saturated potassium ferricyanide. The percentage of methemoglobin formation (MetHb %) was obtained by the ratio of absorbance at 630 nm. MetHb %=(A′−AB′)/AM′, wherein, A′ was the total absorbance of the sample at 630 nm, AB′ was the base absorbance of the reduced blood in the sample at 630 nm, and AM′ was the absorbance of oxidized blood with saturated potassium ferricyanide at 630 nm.

[9] = MIC in vitro anti-bacterial experiments, Gram-positive bacteria; format: cell-based; details: lowest MIC reached; read-out: minimum inhibitory concentration against Gram-positive bacteria
Excerpt: 1. The invention adopts the two-fold agar dilution method recommended by the operating procedure of antimicrobial susceptibility testing set by American Clinical and Laboratory Standards Institute (CLSI) to determine the Minimum Inhibitory Concentration (MIC) of the test samples against the tested strains.

[10] = system: BEL-7402 liver cancer cell line; experiment: CCK-8 proliferation inhibition; format: cell-based; details: concentration of 30 μM, 72 hours, 30 µM
In short: (§2)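 Plating at 2000 cells/well, then incubation overnight at 37° C. Next, a range of compound concentrations for 72 hours (control 1‰ DMSO). Finally, medium decanted and CCK-8 diluted 1:10 added.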

[11] = system: MGC-803 gastric cancer cell line; experiment: CCK-8 proliferation inhibition; format: cell-based; details: concentration of 30 μM
In short: as §2

[12] = system: A549 lung cancer cell line; experiment: CCK-8 proliferation inhibition; format: cell-based; details: Homo sapiens, A549, 72 h, concentration of 30 μM
In short: as §2

MIC (anti-bacterial activity) ([1]; strain MRSA 14-1): < 8 ng/mL
MIC (anti-bacterial activity) ([1]; strain MRSA 14-2): < 8 ng/mL
MIC (anti-bacterial activity) ([1]; strain MRSA 14-4): < 8 ng/mL
MIC (anti-bacterial activity) ([1]; strain MRSA 14-5): < 8 ng/mL
MIC (anti-bacterial activity) ([1]; strain printed MRSA 14-1 (second line of that name, r23, before MRSE 14-2)): < 8 ng/mL
MIC (anti-bacterial activity) ([2]; strain MSSA 14-1): < 8 ng/mL
MIC (anti-bacterial activity) ([2]; strain MSSA 14-2): < 8 ng/mL
MIC (anti-bacterial activity) ([2]; strain MSSA 14-3): < 8 ng/mL
MIC (anti-bacterial activity) ([2]; strain MSSA 14-4): < 8 ng/mL
MIC (anti-bacterial activity) ([3]; strain ECO+ 14-1): 125 ng/mL (≈ 0.306 µM)
MIC (anti-bacterial activity) ([3]; strain ECO+ 14-2): 32000 ng/mL (≈ 78.3 µM)
MIC (anti-bacterial activity) ([3]; strain ECO− 14-1): 32000 ng/mL (≈ 78.3 µM)
MIC (anti-bacterial activity) ([3]; strain ECO− 14-2): 32000 ng/mL (≈ 78.3 µM)
MIC (anti-bacterial activity) ([4]; strain EFA 14-1): 125 ng/mL (≈ 0.306 µM)
MIC (anti-bacterial activity) ([4]; strain EFA 14-2): 500 ng/mL (≈ 1.22 µM)
MIC (anti-bacterial activity) ([4]; strain EFA 14-3): 500 ng/mL (≈ 1.22 µM)
MIC (anti-bacterial activity) ([4]; strain EFA 14-5): 250 ng/mL (≈ 0.612 µM)
MIC (anti-bacterial activity) ([5]; strain MRSE 14-2): < 8 ng/mL
MIC (anti-bacterial activity) ([5]; strain MRSE 14-3): < 8 ng/mL
MIC (anti-bacterial activity) ([5]; strain MRSE 14-4): < 8 ng/mL
MIC (anti-bacterial activity) ([6]; strain MSSE 14-1): < 8 ng/mL
MIC (anti-bacterial activity) ([6]; strain MSSE 14-2): < 8 ng/mL
MIC (anti-bacterial activity) ([6]; strain MSSE 14-3): < 8 ng/mL
MIC (anti-bacterial activity) ([6]; strain MSSE 14-4): < 8 ng/mL
MIC [9]: < 8 ng/mL
SMILES: CCCC[C@H](CN(O)C=O)C(=O)N1CC2(CC2)C[C@H]1C(=O)Nc1ncc(C)s1 [Example 6]
HCT116 inhibition rate/% [7]: 86%
MetHb % (n = 3) ([8]; 500 μM compound, whole blood + S9 + NADPH, 5 hours at 37° C.): 2.25 ± 0.02%
probability of methemoglobin formation in blood compared with the control drugs LBM415 and GSK1322322 ([8]; toxicity test in vitro, in words): lower probability of methemoglobin formation in blood
Inhibition of proliferation, Liver cancer BEL-7402 [10]: 74%
inhibition at 30 µM ([11]; Homo sapiens, MGC-803, 72 h): > 50%
Inhibition of proliferation, Gastric cancer MGC-803 ([11]; 72 hours, 30 µM): 66%
inhibition at 30 µM [12]: 26%
